# According to ChEMBL document CHEMBL6083210, “Exploring apoptotic induction of malabaricone A in triple-negative breast cancer cells: an acylphenol phyto-entity isolated from the fruit rind of Myristica malabarica Lam” (RSC Med Chem, 2024):
# Active and inactive are the calls of the source. The rule behind the calls is not given here.
# Assays:
# MDA-MB-231 [1] = assay: Induction of apoptosis in human MDA-MB-231 cells assessed as early apoptotic cells at 8 uM incubated for 24 hrs by FITC annexin V staining based analysis (reference value: 1.4%); format: functional
# MDA-MB-231 [2] = assay: Induction of morphological changes in human MDA-MB-231 cells assessed as membrane blebbing at 6 to 10 uM measured 24 hrs by EtBr-AO Live dead Assay; format: functional, cell-based; settings: dose 6-10 µM
# MDA-MB-231 [3] = assay: Induction of apoptosis in human MDA-MB-231 cells assessed as viable cells at 6 uM incubated for 24 hrs by FITC annexin V staining based analysis (reference value: 90.5%); format: functional; settings: read-out: Activity
# MDA-MB-231 [4] = assay: Induction of morphological changes in human MDA-MB-231 cells assessed as appearance of spherical shaped cell at 6 to 10 uM measured 24 hrs by EtBr-AO Live dead Assay; format: functional, cell-based; settings: dose 6-10 µM
# MDA-MB-231 [5] = assay: Induction of apoptosis in human MDA-MB-231 cells assessed as necrotic cells at 6 uM incubated for 24 hrs by FITC annexin V staining based analysis (reference value: 0.8%); format: functional
# MDA-MB-231 [6] = assay: Downregulation of Cdk2 level in human MDA-MB-231 cells at 6 to 10 uM by Western blot analysis; format: functional, cell-based; settings: dose 6-10 µM
# MDA-MB-231 [7] = assay: Induction of apoptosis in human MDA-MB-231 cells assessed as viable cells at 10 uM incubated for 24 hrs by FITC annexin V staining based analysis (reference value: 90.5%); format: functional; settings: read-out: Activity
# MDA-MB-231 [8] = assay: Induction of morphological changes in human MDA-MB-231 cells assessed as membrane breakage at 6 to 10 uM measured 24 hrs by EtBr-AO Live dead Assay; format: functional, cell-based; settings: dose 6-10 µM
# MDA-MB-231 [9] = assay: Downregulation of XIAP protein level in human MDA-MB-231 cells at 8 uM measured after 24 hrs; format: functional, cell-based
# MDA-MB-231 [10] = assay: Downregulation of cyclin B1 level in human MDA-MB-231 cells at 6 to 10 uM by Western blot analysis; format: functional, cell-based; settings: dose 6-10 µM
# MDA-MB-231 [11] = assay: Upregulation of Bad protein level in human MDA-MB-231 cells at 8 uM measured after 24 hrs; format: functional, cell-based
# MDA-MB-231 [12] = assay: Induction of apoptosis in human MDA-MB-231 cells assessed as fold increase in caspase 8 level at 8 uM incubated for 24 hrs by fluorometric assay; format: functional
# MDA-MB-231 [13] = assay: Induction of cell cycle arrest in human MDA-MB-231 cells assessed as accumulation of cells at G1 phase at 8 uM incubated for 24 hrs by PI staining based flow cytometry analysis (reference value: 74.2%); format: functional
# MDA-MB-231 [14] = assay: Induction of cell cycle arrest in human MDA-MB-231 cells assessed as accumulation of cells at G1 phase at 6 uM incubated for 24 hrs by PI staining based flow cytometry analysis (reference value: 74.2%); format: functional
# MDA-MB-231 [15] = assay: Induction of apoptosis in human MDA-MB-231 cells assessed as necrotic cells at 10 uM incubated for 24 hrs by FITC annexin V staining based analysis (reference value: 0.8%); format: functional
# MDA-MB-231 [16] = assay: Induction of apoptosis in human MDA-MB-231 cells assessed as dead cells by measuring pink coloration at 6 to 10 uM incubated for 24 hrs by APO staining based analysis; format: functional, cell-based; settings: dose 6-10 µM
# MDA-MB-231 [17] = assay: Induction of cell cycle arrest in human MDA-MB-231 cells assessed as accumulation of cells at G2 phase at 8 uM incubated for 24 hrs by PI staining based flow cytometry analysis (reference value: 7.9%); format: functional
# MDA-MB-231 [18] = assay: Induction of apoptosis in human MDA-MB-231 cells assessed as early apoptotic cells at 10 uM incubated for 24 hrs by FITC annexin V staining based analysis (reference value: 1.4%); format: functional
# MDA-MB-231 [19] = assay: Induction of apoptosis in human MDA-MB-231 cells assessed as early apoptotic cells at 6 uM incubated for 24 hrs by FITC annexin V staining based analysis (reference value: 1.4%); format: functional
# MDA-MB-231 [20] = assay: Upregulation of Bax protein level in human MDA-MB-231 cells at 8 uM measured after 24 hrs; format: functional, cell-based
# MDA-MB-231 [21] = assay: Induction of apoptosis in human MDA-MB-231 cells assessed as viable cells at 8 uM incubated for 24 hrs by FITC annexin V staining based analysis (reference value: 90.5%); format: functional; settings: read-out: Activity
# MDA-MB-231 [22] = assay: Downregulation of cyclin A2 level in human MDA-MB-231 cells at 6 to 10 uM by Western blot analysis; format: functional, cell-based; settings: dose 6-10 µM
# MDA-MB-231 [23] = assay: Induction of apoptosis in human MDA-MB-231 cells assessed as fold increase in caspase 9 level at 8 uM by fluorometric assay; format: functional
# MDA-MB-231 [24] = assay: Induction of apoptosis in human MDA-MB-231 cells assessed as late apoptotic cells at 8 uM incubated for 24 hrs by FITC annexin V staining based analysis (reference value: 7.3%); format: functional
# MDA-MB-231 [25] = assay: Induction of apoptosis in human MDA-MB-231 cells assessed as late apoptotic cells at 6 uM incubated for 24 hrs by FITC annexin V staining based analysis (reference value: 7.3%); format: functional
# MDA-MB-231 [26] = assay: Induction of DNA fragmentation in human MDA-MB-231 cells assessed as appearance of ladder-like pattern at 6 to 10 uM; format: functional, cell-based; settings: dose 6-10 µM
# MDA-MB-231 [27] = assay: Upregulation of p53 protein level in human MDA-MB-231 cells at 8 uM measured after 24 hrs; format: functional, cell-based
# MDA-MB-231 [28] = assay: Antiproliferative activity against human MDA-MB-231 cells assessed as reduction in cell viability measured after 12 to 48 hrs by MTT assay; format: functional, cell-based; settings: dose 1-50 µM, time 12-48 hrs
smiles,measurement,setting,value
O=C(CCCCCCCCc1ccccc1)c1c(O)cccc1O [MALABARICONE A],Activity,MDA-MB-231 [1],6.45%
same,Activity,MDA-MB-231 [2],Active
same,viability at 6 µM,MDA-MB-231 [3],68.5%
same,Activity,MDA-MB-231 [4],Active
same,Activity,MDA-MB-231 [5],3.85%
same,Activity,MDA-MB-231 [6],Active
same,viability at 10 µM,MDA-MB-231 [7],32.4%
same,Activity,MDA-MB-231 [8],Active
same,Activity,MDA-MB-231 [9],Active
same,Activity,MDA-MB-231 [10],Active
same,Activity,MDA-MB-231 [11],Active
same,fold change (FC),MDA-MB-231 [12],2.4
same,Activity,MDA-MB-231 [13],27.5%
same,Activity,MDA-MB-231 [14],36.8%
same,Activity,MDA-MB-231 [15],12.7%
same,Activity,MDA-MB-231 [16],Active
same,Activity,MDA-MB-231 [17],2.9%
same,Activity,MDA-MB-231 [18],4.25%
same,Activity,MDA-MB-231 [19],7.3%
same,Activity,MDA-MB-231 [20],Active
same,viability at 8 µM,MDA-MB-231 [21],50.2%
same,Activity,MDA-MB-231 [22],Active
same,fold change (FC),MDA-MB-231 [23],3.1
same,Activity,MDA-MB-231 [24],35.25%
same,Activity,MDA-MB-231 [25],20.4%
same,Activity,MDA-MB-231 [26],Active
same,Activity,MDA-MB-231 [27],Active
same,Activity,MDA-MB-231 [28],Dose-dependent-effect
